The text below walks through data of patent US20250320246A1, “3-AZASTEROID COMPOUNDS FOR THE TREATMENT OF DISEASES RELATED TO MITROCHONDRIAL FUNCTION” (NZP UK LIMITED, priority 2022, published 2025).

Structures are written as SMILES.

For this experiment, the system named is sporadic PD patient fibroblasts. In words: Cellular ATP levels in sporadic PD patient fibroblasts, Preliminary ATP assay. The class given is cell-based, human. Conditions: Homo sapiens, Fibroblast, 24 h, % of vehicle treated sPD fibroblasts, 3 sporadic PD patients; for activity at 0.1 µM: 100 nM, read-out: Average ATP Response 100 nM; for activity at 1 µM: read-out: Average ATP Response 1 μM. The protocol:
In some cases, a preliminary ATP protocol was used in which EC50 was not determined. The preliminary ATP protocol is generally as described in Mortiboys et al 2008. Briefly, fibroblasts were cultured and plated into white, clear-bottom 384 well plates at a concentration of 4000 cells per well in 50 μl of media volume. The plates are left overnight in an incubator to allow the fibroblasts to adhere to the plate surface. The following morning the Glucose based medium is replaced with 25 μl of Galactose based medium. The cells were then dosed with 100 nM and 1 μM concentrations of the compounds using a ECHO 550 liquid handling system. After dosing the wells are topped up with a further 25 μl of Galactose based medium and then left in an incubator for 24 hours. Following this incubation, the medium is removed from the plate and the wells are washed twice with sterile PBS. The wells are filled with 20 μl of Sterile PBS followed by 10 μl of Lysis solution from the ATPlite™ Luminescence ATP detection assay system (Perkin Elmer), including 14 cell free wells to use as blank controls. The plate is then placed on a rotary shaker for 10 mins at 700 rpm. Following the shaking 10 μl of ATP substrate solution (Perkin Elmer) is added to each well and a further 5 min of shaking. The plate is then incubated in the dark for 10 minutes prior to reading. Using a FLUOstar® Omega plate reader, luminescence intensity is recorded. Following the ATP assay the plates are immediately assayed for DNA content in a CyQUANT® assay.
Immediately following The ATP assay DNA content is assessed with the CyQUANT® NF Cell Proliferation Assay Kit (ThermoFisher). CyQUANT® buffer is prepared immediately before the assay and is comprised of 2 μl CyQUANT® dye per ml×1 HBSS solution. 10 μl of CyQUANT® buffer is added to each well. Cell plates were then incubated for 1 hour before being read on a FLUOStar® Plate reader with excitation at 497 nm and emission at 520 nm.
The ATP Quantification for each well is determined as set out above.

In the case of `C[C@H](CCCC(=O)O)[C@H]1CC[C@H]2[C@@H]3[C@@H](O)C[C@@H]4CN(C(=O)OCc5ccccc5)CC[C@]4(C)[C@H]3CC[C@]12C` [Compound 50b, N-(benzyloxycarbonyl)-3-aza-7β-hydroxy-24-homo-5β-cholan-25-oic acid], the activity at 0.1 µM is 101% and the activity at 1 µM came to 99.8%.
For the compound `C[C@H](CCC(=O)NCCS(=O)(=O)O)[C@H]1CC[C@H]2[C@@H]3[C@@H](O)C[C@@H]4CNCC[C@]4(C)[C@H]3CC[C@]12C` [Compound 51a, N-(3-Aza-7β-hydroxy-5β-cholan-24-amide)-ethylsulfonic acid], the activity at 0.1 µM stood at 101% and the activity at 1 µM was found to be 107%.
In the same order, the values of `C[C@H](CCC(=O)NCC(=O)O)[C@H]1CC[C@H]2[C@@H]3[C@@H](O)C[C@@H]4CNCC[C@]4(C)[C@H]3CC[C@]12C` [Compound 52a, N-(3-Aza-7β-hydroxy-5β-cholan-24-amide)-acetic acid] are 106% and 110%.
As to `C[C@H](CCC(=O)N[C@@H](COC(C)(C)C)C(=O)O)[C@H]1CC[C@H]2[C@@H]3[C@@H](O)C[C@@H]4CN(C)CC[C@]4(C)[C@H]3CC[C@]12C` [Compound 53a, N-(3-Methyl-aza-7β-hydroxy-5β-cholan-24-oyl)-(2S)-2-amino-3-[(2-methylpropan-2-yl)oxy]propanoic acid], the activity at 0.1 µM stood at 109% and the activity at 1 µM came out at 102%.
For `C[C@H](CCC(=O)N[C@H](CC(=O)O)c1ccccc1)[C@H]1CC[C@H]2[C@@H]3[C@@H](O)C[C@@H]4CN(C)CC[C@]4(C)[C@H]3CC[C@]12C` [Compound 54a, N-(3-Methyl-aza-7β-hydroxy-5β-cholan-24-oyl)-(R)-3-amino-3-phenylpropanoic acid], the activity at 0.1 µM amounted to 109% and the activity at 1 µM turned out to be 107%.
With `C[C@H](CCC(=O)Nc1ccc(F)cc1)[C@H]1CC[C@H]2[C@@H]3[C@@H](O)C[C@@H]4CN(C)CC[C@]4(C)[C@H]3CC[C@]12C` [Compound 55a, N-(3-Methyl-aza-7β-hydroxy-5β-cholan-24-oyl)-1-amino-4-fluorobenzene], the activity at 0.1 µM worked out at 110% and the activity at 1 µM was determined as 109%.
`C[C@H](CCC(=O)N1CCOCC1)[C@H]1CC[C@H]2[C@@H]3[C@@H](O)C[C@@H]4CNCC[C@]4(C)[C@H]3CC[C@]12C` [Compound 56a, N-(3-Aza-7β-hydroxy-5β-cholan-24-oyl)-morpholine]: the activity at 0.1 µM came out at 109% and the activity at 1 µM came to 100%.
Regarding `C[C@H](CCC(=O)N[C@@H](CO)C(=O)O)[C@H]1CC[C@H]2[C@@H]3[C@@H](O)C[C@@H]4CNCC[C@]4(C)[C@H]3CC[C@]12C` [Compound 57a, N-(3-Aza-7β-hydroxy-5β-cholan-24-oyl)-(S)-2-amino-3-hydroxypropanoic acid], the activity at 0.1 µM came out at 109% and the activity at 1 µM is 107%.
The like results for `C[C@H](CCC(=O)NCC(F)C(=O)O)[C@H]1CC[C@H]2[C@@H]3[C@@H](O)C[C@@H]4CNCC[C@]4(C)[C@H]3CC[C@]12C` (stereo partly drawn) [Compound 58a, N-(3-Aza-7β-hydroxy-5β-cholan-24-oyl)-3-amino-2-fluoropropanoic acid] were, in that order, 102% and 103%.
In the case of `C[C@H](CCC(=O)N(C1CCCCC1)C1CCCCC1)[C@H]1CC[C@H]2[C@@H]3[C@@H](O)C[C@@H]4CN(C)CC[C@]4(C)[C@H]3CC[C@]12C` [Compound 59a, N-(Cyclohexyl)-N-(3-methyl-aza-7β-hydroxy-5β-cholan-24-oyl)-cyclohexanamine], the activity at 0.1 µM is 106% and the activity at 1 µM came to 99.7%.
In the same order, the values of `C[C@H](CCC(=O)Nc1ccc(C(=O)O)cc1)[C@H]1CC[C@H]2[C@@H]3[C@@H](O)C[C@@H]4CNCC[C@]4(C)[C@H]3CC[C@]12C` [Compound 60a, N-(3-Aza-7β-hydroxy-5β-cholan-24-oyl)-4-aminobenzoic acid] are 102% and 102%.
The like results for `CSCC[C@H](NC(=O)CC[C@@H](C)[C@H]1CC[C@H]2[C@@H]3[C@@H](O)C[C@@H]4CNCC[C@]4(C)[C@H]3CC[C@]12C)C(=O)O` [Compound 61a, N-(3-Aza-7β-hydroxy-5β-cholan-24-oyl)-(S)-2-amino-4-(methylthio)butanoic acid] were, in that order, 105% and 108%.
On to `C[C@H](CCC(=O)NCCC(=O)O)[C@H]1CC[C@H]2[C@@H]3[C@@H](O)C[C@@H]4CNCC[C@]4(C)[C@H]3CC[C@]12C` [Compound 62a, N-(3-Aza-7β-hydroxy-5β-cholan-24-amide)-propanoic acid], for which the activity at 0.1 µM stood at 108% and the activity at 1 µM came to 108%.
On to `CC(C)OC(=O)c1ccc(NC(=O)CC[C@@H](C)[C@H]2CC[C@H]3[C@@H]4[C@@H](O)C[C@@H]5CNCC[C@]5(C)[C@H]4CC[C@]23C)cc1` [Compound 63a, N-(3-Aza-7β-hydroxy-5β-cholan-24-oyl)-(isopropyl-4-aminobenzoate)], for which the activity at 0.1 µM came to 106% and the activity at 1 µM was 104%.
As for `CC(C)[C@H](NC(=O)CC[C@@H](C)[C@H]1CC[C@H]2[C@@H]3[C@@H](O)C[C@@H]4CNCC[C@]4(C)[C@H]3CC[C@]12C)C(=O)O` [Compound 65a, N-(3-Aza-7β-hydroxy-5β-cholan-24-oyl)-(S)-2-amino-3-methylbutanoic acid], the activity at 0.1 µM is 111% and the activity at 1 µM was found to be 108%.
Take `CC[C@H](C)[C@H](NC(=O)CC[C@@H](C)[C@H]1CC[C@H]2[C@@H]3[C@@H](O)C[C@@H]4CNCC[C@]4(C)[C@H]3CC[C@]12C)C(=O)O` [Compound 66a, N-(3-Aza-7β-hydroxy-5β-cholan-24-oyl)-(2S,3S)-2-amino-3-methylpentanoic acid]: the activity at 0.1 µM stood at 109% and the activity at 1 µM was determined as 111%.
The like results for `C[C@H](CCC(=O)N(C)CC(=O)O)[C@H]1CC[C@H]2[C@@H]3[C@@H](O)C[C@@H]4CNCC[C@]4(C)[C@H]3CC[C@]12C` [Compound 67a, N-Methyl-N-(3-aza-7β-hydroxy-5β-cholan-24-oyl)-glycine] were, in that order, 108% and 107%.
Consider `C[C@H](NC(=O)CC[C@@H](C)[C@H]1CC[C@H]2[C@@H]3[C@@H](O)C[C@@H]4CNCC[C@]4(C)[C@H]3CC[C@]12C)C(=O)O` [Compound 68a, N-(3-Aza-7β-hydroxy-5β-cholan-24-oyl)-(S)-2-aminopropanoic acid], for which the activity at 0.1 µM is 109% and the activity at 1 µM turned out to be 99%.
With `C[C@H](CCCC(=O)N[C@@H](CC(=O)O)C(=O)O)[C@H]1CC[C@H]2[C@@H]3[C@@H](O)C[C@@H]4CNCC[C@]4(C)[C@H]3CC[C@]12C` [Compound 70b, N-(3-Aza-7β-hydroxy-25-homo-5β-cholan-25-oyl)-(S)-2-aminobutanedioic acid], the activity at 0.1 µM came to 106% and the activity at 1 µM came to 107%.
As for `C[C@H](CCCC(=O)N[C@@H](COC(C)(C)C)C(=O)O)[C@H]1CC[C@H]2[C@@H]3[C@@H](O)C[C@@H]4CNCC[C@]4(C)[C@H]3CC[C@]12C` [Compound 71b, N-(3-Aza-7β-hydroxy-25-homo-5β-cholan-25-oyl)-(2S)-2-amino-3-[(2-methylpropan-2-yl)oxy]propanoic acid], the activity at 0.1 µM is 106% and the activity at 1 µM is 104%.
For `C[C@H](CCCC(=O)NCCS(=O)(=O)O)[C@H]1CC[C@H]2[C@@H]3[C@@H](O)C[C@@H]4CNCC[C@]4(C)[C@H]3CC[C@]12C` [Compound 72b, N-(3-Aza-7β-hydroxy-25-homo-5β-cholan-25-amide)-ethylsulfonic acid], the activity at 0.1 µM came out at 102% and the activity at 1 µM amounted to 112%.
For `C[C@H](CCCC(=O)N[C@@H](Cc1ccccc1)C(=O)O)[C@H]1CC[C@H]2[C@@H]3[C@@H](O)C[C@@H]4CNCC[C@]4(C)[C@H]3CC[C@]12C` [Compound 73b, N-(3-Aza-7β-hydroxy-25-homo-5β-cholan-25-oyl)-(S)-2-amino-3-phenylpropanoic acid], the activity at 0.1 µM came out at 99.6% and the activity at 1 µM came to 100%.
